Literature values in US20040042990A1, “Composition containing oxidation-sensitive hydrophilic active principle and maleic anhydride copolymer, and use thereof” (L'OREAL, Paris, France, priority 2002, published 2004).

Tested on: reconstructed skin

## O=C1O[C@H]([C@@H](O)CO)C([O-])=C1OP(=O)([O-])[O-].O=C1O[C@H]([C@@H](O)CO)C([O-])=C1OP(=O)([O-])[O-].[Mg+2].[Mg+2].[Mg+2] [magnesium ascorbyl phosphate]
Reconstructed skin culture medium
  number of fibroblasts in the lattice: significant increase
Reconstructed skin, in particular at the dermoepidermal junction
  synthesis of proteins of the extracellular matrix (collagens IV and VII, laminin): significant stimulation
